Measurements reported in ChEMBL document CHEMBL1144896 (2003).

Columns and labels:
NCI-H1299 [1] = test: hTERT-SEAP (Human telomerase reverse transcriptase-SEAP) activity in non-small cell lung cancer H1299 cell at 3.0 uM concentration and level of cell viability determined in MTT assay; type: functional
BJ [2] = test: hTERT-SEAP (Human telomerase reverse transcriptase-SEAP) activity in immortalized hTERT-BJI at 3.0 uM concentration and level of cell viability determined in MTT assay; type: functional
NCI-H1299 [3] = test: hTERT-SEAP (Human telomerase reverse transcriptase-SEAP) activity in non-small cell lung cancer H1299 cell at 300.0 uM concentration and level of cell viability determined in MTT assay; type: functional
NCI-H1299 [4] = test: Compound was tested for human telomerase reverse transcriptase-SEAP (hTERT-SEAP) activity in non-small cell lung cancer H1299 cell at 30.0 uM concentration; type: functional
BJ [5] = test: Compound was tested for human telomerase reverse transcriptase-SEAP (hTERT-SEAP) activity in immortalized hTERT-BJI at 3.0 uM concentration; type: functional
NCI-H1299 [6] = test: Compound was tested for human telomerase reverse transcriptase-SEAP (hTERT-SEAP) activity in non-small cell lung cancer H1299 cell at 3.0 uM concentration; type: functional
BJ [7] = test: hTERT-SEAP (Human telomerase reverse transcriptase-SEAP) activity in immortalized hTERT-BJI at 300.0 uM concentration and level of cell viability determined in MTT assay; type: functional
BJ [8] = test: Compound was tested for human telomerase reverse transcriptase-SEAP (hTERT-SEAP) activity in immortalized hTERT-BJI at 30.0 uM concentration; type: functional
NCI-H1299 [9] = test: Compound was tested for human telomerase reverse transcriptase-SEAP (hTERT-SEAP) activity in non-small cell lung cancer H1299 cell at 300.0 uM concentration; type: functional
NCI-H1299 [10] = test: hTERT-SEAP (Human telomerase reverse transcriptase-SEAP) activity in non-small cell lung cancer H1299 cell at 30.0 uM concentration and level of cell viability determined in MTT assay; type: functional
BJ [11] = test: hTERT-SEAP (Human telomerase reverse transcriptase-SEAP) activity in immortalized hTERT-BJI at 30.0 uM concentration and level of cell viability determined in MTT assay; type: functional
BJ [12] = test: Compound was tested for human telomerase reverse transcriptase-SEAP (hTERT-SEAP) activity in immortalized hTERT-BJI at 300.0 uM concentration; type: functional
BJ [13] = test: hTERT-SEAP (Human telomerase reverse transcriptase-SEAP) activity in immortalized hTERT-BJI at 26 uM concentration and level of cell viability determined in MTT assay; type: functional
BJ [14] = test: Compound was tested for human telomerase reverse transcriptase-SEAP (hTERT-SEAP) activity in immortalized hTERT-BJI at 260.0 uM concentration; type: functional
NCI-H1299 [15] = test: hTERT-SEAP (Human telomerase reverse transcriptase-SEAP) activity in non-small cell lung cancer H1299 cell at 2.6 uM concentration and level of cell viability determined in MTT assay; type: functional
NCI-H1299 [16] = test: hTERT-SEAP (Human telomerase reverse transcriptase-SEAP) activity in non-small cell lung cancer H1299 cell at 260.0 uM concentration and level of cell viability determined in MTT assay; type: functional
BJ [17] = test: hTERT-SEAP (Human telomerase reverse transcriptase-SEAP) activity in immortalized hTERT-BJI at 260.0 uM concentration and level of cell viability determined in MTT assay; type: functional
NCI-H1299 [18] = test: hTERT-SEAP (Human telomerase reverse transcriptase-SEAP) activity in non-small cell lung cancer H1299 cell at 26 uM concentration and level of cell viability determined in MTT assay; type: functional
NCI-H1299 [19] = test: Compound was tested for human telomerase reverse transcriptase-SEAP (hTERT-SEAP) activity in non-small cell lung cancer H1299 cell at 260.0 uM concentration; type: functional
NCI-H1299 [20] = test: Compound was tested for human telomerase reverse transcriptase-SEAP (hTERT-SEAP) activity in non-small cell lung cancer H1299 cell at 26 uM concentration; type: functional
NCI-H1299 [21] = test: Compound was tested for human telomerase reverse transcriptase-SEAP (hTERT-SEAP) activity in non-small cell lung cancer H1299 cell at 2.6 uM concentration; type: functional
BJ [22] = test: Compound was tested for human telomerase reverse transcriptase-SEAP (hTERT-SEAP) activity in immortalized hTERT-BJI at 26 uM concentration; type: functional
BJ [23] = test: hTERT-SEAP (Human telomerase reverse transcriptase-SEAP) activity in immortalized hTERT-BJI at 280.0 uM concentration and level of cell viability determined in MTT assay; type: functional
BJ [24] = test: Compound was tested for cytomegalovirus or (pPCMV-SEAP) activity in immortalized hTERT-BJ1 at 280 uM concentration; type: functional, Homo sapiens
NCI-H1299 [25] = test: hTERT-SEAP (Human telomerase reverse transcriptase-SEAP) activity in non-small cell lung cancer H1299 cell at 28 uM concentration and level of cell viability determined in MTT assay; type: functional
NCI-H1299 [26] = test: hTERT-SEAP (Human telomerase reverse transcriptase-SEAP) activity in non-small cell lung cancer H1299 cell at 2.8 uM concentration and level of cell viability determined in MTT assay; type: functional
NCI-H1299 [27] = test: Compound was tested for human telomerase reverse transcriptase-SEAP (hTERT-SEAP) activity in non-small cell lung cancer H1299 cell at 280.0 uM concentration; type: functional
BJ [28] = test: Compound was tested for human telomerase reverse transcriptase-SEAP (hTERT-SEAP) activity in immortalized hTERT-BJI at 280.0 uM concentration; type: functional
NCI-H1299 [29] = test: Compound was tested for human telomerase reverse transcriptase-SEAP (hTERT-SEAP) activity in non-small cell lung cancer H1299 cell at 28.0 uM concentration; type: functional
BJ [30] = test: pPCMV-SEAP (cytomegalovirus-SEAP) activity in immortalized hTERT-BJ1 at 2.8 uM concentration and level of cell viability determined in MTT assay; type: functional, Homo sapiens
BJ [31] = test: pPCMV-SEAP (cytomegalovirus-SEAP) activity in immortalized hTERT-BJ1 at 280 uM concentration and level of cell viability determined in MTT assay; type: functional, Homo sapiens
BJ [32] = test: pPCMV-SEAP (cytomegalovirus-SEAP) activity in immortalized hTERT-BJ1 at 28 uM concentration and level of cell viability determined in MTT assay; type: functional, Homo sapiens
NCI-H1299 [33] = test: Compound was tested for human telomerase reverse transcriptase-SEAP (hTERT-SEAP) activity in non-small cell lung cancer H1299 cell at 2.8 uM concentration; type: functional
BJ [34] = test: Compound was tested for cytomegalovirus or (pPCMV-SEAP) activity in immortalized hTERT-BJ1 at 2.8 uM concentration; type: functional, Homo sapiens
BJ [35] = test: hTERT-SEAP (Human telomerase reverse transcriptase-SEAP) activity in immortalized hTERT-BJI at 28.0 uM concentration and level of cell viability determined in MTT assay; type: functional
BJ [36] = test: hTERT-SEAP (Human telomerase reverse transcriptase-SEAP) activity in immortalized hTERT-BJI at 2.8 uM concentration and level of cell viability determined in MTT assay; type: functional
BJ [37] = test: Compound was tested for human telomerase reverse transcriptase-SEAP (hTERT-SEAP) activity in immortalized hTERT-BJI at 2.8 uM concentration; type: functional
NCI-H1299 [38] = test: hTERT-SEAP (Human telomerase reverse transcriptase-SEAP) activity in non-small cell lung cancer H1299 cell at 280.0 uM concentration and level of cell viability determined in MTT assay; type: functional
BJ [39] = test: Compound was tested for cytomegalovirus or (pPCMV-SEAP) activity in immortalized hTERT-BJ1 at 28 uM concentration; type: functional, Homo sapiens
BJ [40] = test: Compound was tested for human telomerase reverse transcriptase-SEAP (hTERT-SEAP) activity in immortalized hTERT-BJI at 28.0 uM concentration; type: functional

CCSc1cccc2c1C(=O)c1cccc(SCC)c1C2=O
Relative viability (NCI-H1299 [1]): 111% | Relative viability (BJ [2]): 112% | Relative viability (NCI-H1299 [3]): 25% | Relative SEAP activity (NCI-H1299 [4]): 111% | Relative SEAP activity (BJ [5]): 109% | Relative SEAP activity (NCI-H1299 [6]): 134% | Relative viability (BJ [7]): 34% | Relative SEAP activity (BJ [8]): 110% | Relative SEAP activity (NCI-H1299 [9]): 99% | Relative viability (NCI-H1299 [10]): 44% | Relative viability (BJ [11]): 98% | Relative SEAP activity (BJ [12]): 104%

CCCC(=O)Oc1cccc2c1C(=O)c1cccc(OC(=O)CCC)c1C2=O
Relative viability (BJ [13]): 106% | Relative SEAP activity (BJ [14]): 134% | Relative viability (NCI-H1299 [15]): 107% | Relative viability (NCI-H1299 [16]): 87% | Relative viability (BJ [17]): 85% | Relative viability (NCI-H1299 [18]): 106% | Relative SEAP activity (NCI-H1299 [19]): 111% | Relative SEAP activity (NCI-H1299 [20]): 118% | Relative SEAP activity (NCI-H1299 [21]): 114% | Relative SEAP activity (BJ [22]): 119%

CCC(=O)Oc1cccc2c1C(=O)c1cccc(OC(=O)CC)c1C2=O
Relative viability (BJ [23]): 93% | Relative SEAP activity (BJ [24]): 138% | Relative viability (NCI-H1299 [25]): 116% | Relative viability (NCI-H1299 [26]): 116% | Relative SEAP activity (NCI-H1299 [27]): 97% | Relative SEAP activity (BJ [28]): 161% | Relative SEAP activity (NCI-H1299 [29]): 107% | Relative viability (BJ [30]): 114% | Relative viability (BJ [31]): 94% | Relative viability (BJ [32]): 110% | Relative SEAP activity (NCI-H1299 [33]): 103% | Relative SEAP activity (BJ [34]): 101% | Relative viability (BJ [35]): 109% | Relative viability (BJ [36]): 99% | Relative SEAP activity (BJ [37]): 131% | Relative viability (NCI-H1299 [38]): 87% | Relative SEAP activity (BJ [39]): 112% | Relative SEAP activity (BJ [40]): 152%
